Test results published in patent publication US20260055102A1 (Redx Pharma Limited, priority 2022, published 2026).

Experiments:
[1] = molecular target: Recombinant human DDR1 (aa440-876 containing a GST tag) (Homo sapiens (Human), UniProt Q08345); experiment: LanthaScreen Eu Kinase Binding Assay DDR1; conditions: Kinase Tracer 178 5 nM, at least two independent replicates; for IC50: read-out: DDR1 pIC50 (converted)
Protocol: (§1) DDR1 and DDR2 Biochemical Assay Method The capacity of compounds to bind to DDR1 and DDR2 was quantified using a LanthaScreen Eu Kinase Binding Assay. Recombinant human DDR1 (2.5 nM; aa440-876 containing a GST tag) and DDR2 (1.75 nM; aa427-855 containing a GST tag) were diluted in assay buffer (50 mM HEPES pH7.3, 10 mM MgCl2, 1 mM EGTA and 0.01% Tween) with various concentrations of compound in a 384-well plate and a volume of 5 uL. After a 30-minute incubation at room temperature, 2.5 uL of Eu-anti GST antibody (diluted to 1 nM in assay buffer) plus Kinase Tracer 178 (diluted in assay buffer to 5 nM for DDR1 and 10 nM for DDR2) were added to the plate. Following 60-minute incubation at room temperature, time-resolved fluorescence was measured on a BMG Labtech PHERAstar plate reader. DMSO (1%) and reference compound (1 μM) were used to generate the Max and Min assay signals, respectively. Data was analysed using a four-parameter logistic model to calculate IC50 values, with at least two independent replicates were performed for each compound.

[2] = molecular target: Recombinant human DDR2 (aa427-855 containing a GST tag) (Homo sapiens (Human), UniProt Q16832); experiment: LanthaScreen Eu Kinase Binding Assay DDR2; conditions: Kinase Tracer 178 10 nM, at least two independent replicates; for IC50: read-out: DDR2 pIC50 (converted)
Sequence of Recombinant human DDR2 (aa427-855 containing a GST tag) (Q16832 427-855): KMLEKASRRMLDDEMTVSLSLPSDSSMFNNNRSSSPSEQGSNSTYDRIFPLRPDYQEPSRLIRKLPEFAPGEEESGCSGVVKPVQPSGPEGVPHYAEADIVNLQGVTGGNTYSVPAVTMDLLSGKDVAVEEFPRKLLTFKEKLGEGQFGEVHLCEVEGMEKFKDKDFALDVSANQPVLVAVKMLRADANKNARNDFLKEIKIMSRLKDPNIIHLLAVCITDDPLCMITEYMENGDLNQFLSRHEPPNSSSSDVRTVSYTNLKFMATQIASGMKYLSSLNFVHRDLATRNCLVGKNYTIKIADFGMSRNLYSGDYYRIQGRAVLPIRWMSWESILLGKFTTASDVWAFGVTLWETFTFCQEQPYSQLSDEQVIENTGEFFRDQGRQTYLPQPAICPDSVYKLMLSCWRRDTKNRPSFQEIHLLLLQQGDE
Protocol: as §1

Sequence of Recombinant human DDR1 (aa440-876 containing a GST tag) (Q08345 other isoform, or with tags, fused parts or gaps): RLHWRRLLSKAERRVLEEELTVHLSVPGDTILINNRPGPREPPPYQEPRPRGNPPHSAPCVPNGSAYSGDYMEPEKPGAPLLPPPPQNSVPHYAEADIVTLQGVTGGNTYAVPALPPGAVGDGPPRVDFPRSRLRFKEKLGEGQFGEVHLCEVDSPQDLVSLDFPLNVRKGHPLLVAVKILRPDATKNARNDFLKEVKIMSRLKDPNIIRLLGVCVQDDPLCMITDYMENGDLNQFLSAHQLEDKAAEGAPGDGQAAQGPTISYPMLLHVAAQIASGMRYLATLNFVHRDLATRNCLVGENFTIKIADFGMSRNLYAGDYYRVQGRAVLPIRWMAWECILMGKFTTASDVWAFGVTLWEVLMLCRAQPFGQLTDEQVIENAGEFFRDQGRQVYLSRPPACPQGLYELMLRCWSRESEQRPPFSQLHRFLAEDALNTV

| DDR1 pIC50 [1] | IC50 [2] [nM] | IC50 [1] [nM] | DDR2 pIC50 [2] | Structure (SMILES) |
| --- | --- | --- | --- | --- |
| A (pIC50>8) | 10 to 100 |  |  | Cc1cccc2c1n(-c1ccc(-c3cncc4c3cnn4C)cc1)c(=O)n2CC(=O)N1CCC[C@H]1C(F)F [Example 43, 1-[2-[(2S)-2-(difluoromethyl)pyrrolidin-1-yl]-2-oxo-ethyl]-4-methyl-3-[4-(1-methylpyrazolo[3,4-c]pyridin-4-yl)phenyl]benzimidazol-2-one] |
|  | 10 to 100 | < 10 |  | Cc1cccc2c1n(-c1ccc(-c3cncc4[nH]ncc34)cc1)c(=O)n2CC(=O)NCC(F)(F)F [Example 44, 2-[4-methyl-2-oxo-3-[4-(1H-pyrazolo[3,4-c]pyridin-4-yl)phenyl]benzimidazol-1-yl]-N-(2,2,2-trifluoroethyl)acetamide] |
| A (pIC50>8) | 10 to 100 |  |  | Cc1cccc2c1n(-c1ccc(-c3cncc4c3cnn4C)cc1)c(=O)n2CC(=O)N1CCC[C@H]1CF [Example 45, 1-[2-[(2S)-2-(fluoromethyl)pyrrolidin-1-yl]-2-oxo-ethyl]-4-methyl-3-[4-(1-methylpyrazolo[3,4-c]pyridin-4-yl)phenyl]benzimidazol-2-one] |
|  |  | 10 to 100 | D (pIC50≤6) | Cn1ncc2c(-c3ccc(-n4c(=O)n(CC(=O)NCCC(F)(F)F)c5ccccc54)cc3)cncc21 [Example 46, 2-[3-[4-(1-methylpyrazolo[3,4-c]pyridin-4-yl)phenyl]-2-oxo-benzimidazol-1-yl]-N-(3,3,3-trifluoropropyl)acetamide] |
| A (pIC50>8) | 100 to 1000 |  |  | Cc1cccc2c1n(-c1cnc(-c3cncc4c3cnn4C)cn1)c(=O)n2CC(=O)NCC(F)(F)F [Example 47, 2-[4-methyl-3-[5-(1-methylpyrazolo[3,4-c]pyridin-4-yl)pyrazin-2-yl]-2-oxo-benzimidazol-1-yl]-N-(2,2,2-trifluoroethyl)acetamide] |
|  |  | 10 to 100 | D (pIC50≤6) | Cc1cccc2c1n(-c1cnc(-c3cncc4c3cnn4C)cn1)c(=O)n2CC(=O)N[C@H](C)C(F)(F)F [Example 48, 2-[4-methyl-3-[5-(1-methylpyrazolo[3,4-c]pyridin-4-yl)pyrazin-2-yl]-2-oxo-benzimidazol-1-yl]-N-[(1R)-2,2,2-trifluoro-1-methyl-ethyl]acetamide] |
| A (pIC50>8) | 10 to 100 |  |  | Cc1cccc2c1n(-c1cnc(-c3cncc4c3cnn4C)cn1)c(=O)n2CC(=O)N[C@@H](C)C(F)(F)F [Example 49, 2-[4-methyl-3-[5-(1-methylpyrazolo[3,4-c]pyridin-4-yl)pyrazin-2-yl]-2-oxo-benzimidazol-1-yl]-N-[(1S)-2,2,2-trifluoro-1-methyl-ethyl]acetamide] |
| A (pIC50>8) | 10 to 100 |  |  | Cc1cccc2c1n(-c1ccc(-c3cncc4c3cnn4C)nc1)c(=O)n2CC(=O)NCC(F)(F)F [Example 50, 2-[4-methyl-3-[6-(1-methylpyrazolo[3,4-c]pyridin-4-yl)-3-pyridyl]-2-oxo-benzimidazol-1-yl]-N-(2,2,2-trifluoroethyl)acetamide] |
|  | 100 to 1000 | 10 to 100 |  | Cc1cccc2c1n(-c1ccc(-c3cncc4c3cnn4C)nc1)c(=O)n2CC(=O)N[C@H](C)C(F)(F)F [Example 51, 2-[4-methyl-3-[6-(1-methylpyrazolo[3,4-c]pyridin-4-yl)-3-pyridyl]-2-oxo-benzimidazol-1-yl]-N-[(1R)-2,2,2-trifluoro-1-methyl-ethyl]acetamide] |
| A (pIC50>8) | 10 to 100 |  |  | Cc1cccc2c1n(-c1ccc(-c3cncc4c3cnn4C)nc1)c(=O)n2CC(=O)N[C@@H](C)C(F)(F)F [Example 52, 2-[4-methyl-3-[6-(1-methylpyrazolo[3,4-c]pyridin-4-yl)-3-pyridyl]-2-oxo-benzimidazol-1-yl]-N-[(1S)-2,2,2-trifluoro-1-methyl-ethyl]acetamide] |
| A (pIC50>8) | 10 to 100 |  |  | Cc1cccc2c1n(-c1ccc(-c3cncc4c3cnn4C)nc1)c(=O)n2CC(=O)N1CCOC[C@H]1C(F)(F)F [Example 53, 4-methyl-3-[6-(1-methylpyrazolo[3,4-c]pyridin-4-yl)-3-pyridyl]-1-[2-oxo-2-[(3S)-3-(trifluoromethyl)morpholin-4-yl]ethyl]benzimidazol-2-one] |
| A (pIC50>8) | 10 to 100 |  |  | Cc1cccc2c1n(-c1ccc(-c3cncc4c3cnn4C)nc1)c(=O)n2CC(=O)N1CCO[C@H](C(F)(F)F)C1 [Example 54, 4-methyl-3-[6-(1-methylpyrazolo[3,4-c]pyridin-4-yl)-3-pyridyl]-1-[2-oxo-2-[(2S)-2-(trifluoromethyl)morpholin-4-yl]ethyl]benzimidazol-2-one] |
| A (pIC50>8) | 10 to 100 |  |  | Cc1cccc2c1n(-c1ccc(-c3cncc4c3cnn4C)nc1)c(=O)n2CC(=O)N1CCC[C@H]1C(F)(F)F [Example 56, 4-methyl-3-[6-(1-methylpyrazolo[3,4-c]pyridin-4-yl)-3-pyridyl]-1-[2-oxo-2-[(2S)-2-(trifluoromethyl)pyrrolidin-1-yl]ethyl]benzimidazol-2-one] |
| A (pIC50>8) |  |  | C (7≥pIC50>6) | Cc1cccc2c1n(-c1ccc(-c3cncc4c3cnn4C)cn1)c(=O)n2CC(=O)N[C@@H](C)C(F)(F)F [Example 57, 2-[4-methyl-3-[5-(1-methylpyrazolo[3,4-c]pyridin-4-yl)-2-pyridyl]-2-oxo-benzimidazol-1-yl]-N-[(1S)-2,2,2-trifluoro-1-methyl-ethyl]acetamide] |
|  | 100 to 1000 | 10 to 100 |  | Cc1cccc2c1n(-c1ccc(-c3cncc4c3cnn4C)cn1)c(=O)n2CC(=O)NCC(F)(F)F [Example 58] |
| A (pIC50>8) | 10 to 100 |  |  | Cc1cccc2c1n(-c1ccc(-c3cncc4c3cnn4C)cn1)c(=O)n2CC(=O)N1CCC[C@H]1C(F)(F)F [Example 59, 4-methyl-3-[5-(1-methylpyrazolo[3,4-c]pyridin-4-yl)-2-pyridyl]-1-[2-oxo-2-[(2S)-2-(trifluoromethyl)pyrrolidin-1-yl]ethyl]benzimidazol-2-one] |
|  | 100 to 1000 | 10 to 100 |  | Cc1cccc2c1n(-c1ccc(-c3cncc4c3cnn4C)cn1)c(=O)n2CC(=O)N1CCO[C@@H](C(F)(F)F)C1 [Example 60, 4-methyl-3-[5-(1-methylpyrazolo[3,4-c]pyridin-4-yl)-2-pyridyl]-1-[2-oxo-2-[(2R)-2-(trifluoromethyl)morpholin-4-yl]ethyl]benzimidazol-2-one] |
| A (pIC50>8) | 100 to 1000 |  |  | C[C@@H](CC(F)(F)F)NC(=O)Cn1c(=O)n(-c2ccc(-c3cncc4c3cnn4C)cc2)c2ccccc21 [Example 62, 2-[3-[4-(1-methylpyrazolo[3,4-c]pyridin-4-yl)phenyl]-2-oxo-benzimidazol-1-yl]-N-[(1S)-3,3,3-trifluoro-1-methyl-propyl]acetamide] |
|  |  | 100 to 1000 | D (pIC50≤6) | Cn1ncc2c(-c3ccc(-n4c(=O)n(CC(=O)NCC(F)(F)F)c5ccccc54)nc3)cncc21 [Example 63, 2-[3-[5-(1-methylpyrazolo[3,4-c]pyridin-4-yl)-2-pyridyl]-2-oxo-benzimidazol-1-yl]-N-(2,2,2-trifluoroethyl) acetamide] |
| B (8≥pIC50>7) |  |  | D (pIC50≤6) | Cc1cccc2c1n(-c1ccc(-c3cncc4c3cnn4C)cn1)c(=O)n2CC(=O)N[C@@H](C)C(F)(F)F [Example 64, 2-[4-methyl-3-[5-(1-methylpyrazolo[3,4-c]pyridin-4-yl)-2-pyridyl]-2-oxo-benzimidazol-1-yl]-N-[(1S)-2,2,2-trifluoro-1-methyl-ethyl]acetamide] |
| A (pIC50>8) | 100 to 1000 |  |  | Cn1ncc2c(-c3ccc(-n4c(=O)n(CC(=O)N5CCC[C@H]5C(F)(F)F)c5ccccc54)cn3)cncc21 [Example 65, 1-[6-(1-methylpyrazolo[3,4-c]pyridin-4-yl)-3-pyridyl]-3-[2-oxo-2-[(2S)-2-(trifluoromethyl)pyrrolidin-1-yl]ethyl]benzimidazol-2-one] |
|  |  | 10 to 100 | D (pIC50≤6) | Cc1cccc2c1n(-c1ncc(-c3cncc4c3cnn4C)cn1)c(=O)n2CC(=O)NCC(F)(F)F [Example 66, 2-[4-methyl-3-[5-(1-methylpyrazolo[3,4-c]pyridin-4-yl)pyrimidin-2-yl]-2-oxo-benzimidazol-1-yl]-N-(2,2,2-trifluoroethyl)acetamide] |
|  | 100 to 1000 | 10 to 100 |  | Cc1cccc2c1n(-c1ccc(-c3cncc4c3cnn4C)nn1)c(=O)n2CC(=O)NCC(F)(F)F [Example 67, 2-[4-methyl-3-[6-(1-methylpyrazolo[3,4-c]pyridin-4-yl)pyridazin-3-yl]-2-oxo-benzimidazol-1-yl]-N-(2,2,2-trifluoroethyl)acetamide] |
| A (pIC50>8) | 10 to 100 |  |  | Cc1cccc2c1n(-c1ccc(-c3cncc4[nH]ncc34)nc1)c(=O)n2CC(=O)N[C@@H](C)C(F)(F)F [Example 68, 2-[4-methyl-2-oxo-3-[6-(1H-pyrazolo[3,4-c]pyridin-4-yl)-3-pyridyl]benzimidazol-1-yl]-N-[(1S)-2,2,2-trifluoro-1-methyl-ethyl]acetamide] |
